Measured values as given in PubChem BioAssay AID248 (DTP/NCI, 2004).
Several values for one entry are separate records, joined by “and”; a condition that tells them apart may be missing. Equal entries are not always repeated. Toxic doses and inconclusive results are not listed. No stated cut-off is given here; in the data, active means T/C of 150% or more; inactive means T/C below 125%.

Test system: L1210 leukemia ip in BDF1 mice, survival T/C
Experiment: NCI In Vivo Anticancer Drug Screen. Data for tumor model L1210 Leukemia (intraperitoneal) in B6D2F1 (BDF1) mice
Conditions: endpoint: mean survival time, higher = longer survival
Summary of the method: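 Tumor was transplanted into mice, which were then dosed with test compound or vehicle alone. Survival was recorded for each group, and the treated figure was expressed relative to the control figure.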

[1] = dose: 100.0 mg/kg/injection, schedule: Q01DX001 (ip), vehicle: saline
[2] = dose: 200.0 mg/kg/injection, schedule: Q01DX001 (ip), vehicle: saline
[3] = dose: 400.0 mg/kg/injection, schedule: Q01DX001 (ip), vehicle: saline
[4] = dose: 100.0 mg/kg/injection, schedule: Q04DX003 (ip), vehicle: Klucel (hydroxypropylcellulose) (HPC)
[5] = dose: 200.0 mg/kg/injection, schedule: Q04DX003 (ip), vehicle: Klucel (hydroxypropylcellulose) (HPC)
[6] = dose: 400.0 mg/kg/injection, schedule: Q04DX003 (ip), vehicle: Klucel (hydroxypropylcellulose) (HPC)
[7] = dose: 100.0 mg/kg/injection, schedule: Q01DX001 (ip), vehicle: carboxymethylcellulose (CMC)
[8] = dose: 100.0 mg/kg/injection, schedule: Q04DX002 (ip), vehicle: saline with Tween-80
[9] = dose: 200.0 mg/kg/injection, schedule: Q04DX002 (ip), vehicle: saline with Tween-80
[10] = dose: 400.0 mg/kg/injection, schedule: Q04DX002 (ip), vehicle: saline with Tween-80
[11] = dose: 400.0 mg/kg/injection, schedule: Q01DX001 (ip), vehicle: carboxymethylcellulose (CMC)
[12] = dose: 100.0 mg/kg/injection, schedule: Q01DX009 (ip), vehicle: saline with Tween-80
[13] = dose: 100.0 mg/kg/injection, schedule: Q04DX003 (ip), vehicle: saline with Tween-80
[14] = dose: 200.0 mg/kg/injection, schedule: Q01DX009 (ip), vehicle: saline with Tween-80
[15] = dose: 200.0 mg/kg/injection, schedule: Q04DX003 (ip), vehicle: saline with Tween-80

Measured: T/C

COc1nc(C)c(C)n[n+]1C
inactive: dose: 75.0 mg/kg/injection, schedule: Q01DX001 (ip), vehicle: saline with Tween-80 107 % of control | dose: 150.0 mg/kg/injection, schedule: Q01DX001 (ip), vehicle: saline with Tween-80 104 % of control | dose: 300.0 mg/kg/injection, schedule: Q01DX001 (ip), vehicle: saline with Tween-80 111 % of control

O=C1C2=C(c3ccccc31)C1c3ccccc3C(=O)C1(c1ccccc1)c1ccccc12 (centres undefined)
inactive: [1] 105 % of control | [2] 97 % of control | [3] 92 % of control

S=C(Cc1ccccc1)NC1CCCCC1
inactive: [4] 103 % of control | [5] 101 % of control | [6] 95 % of control

CCCCCCCCCCCCCCCC(=O)SCCSC(=O)CCCCCCCCCCCCCCC
inactive: dose: 87.5 mg/kg/injection, schedule: Q04DX003 (ip), vehicle: other 93 % of control | dose: 175.0 mg/kg/injection, schedule: Q04DX003 (ip), vehicle: other 93 % of control

Nc1ncnc2c1ccn2C1CCCC1
inactive: dose: 25.0 mg/kg/injection, schedule: Q01DX001 (ip), vehicle: carboxymethylcellulose (CMC) 100 % of control | dose: 50.0 mg/kg/injection, schedule: Q01DX001 (ip), vehicle: carboxymethylcellulose (CMC) 111 % of control | [7] 105 % of control

O=C1CCC(NC(=O)C(F)(F)F)C(=O)O1 (centres undefined)
inactive: [4] 101 % of control | [5] 94 % of control | [6] 92 % of control

FC(F)(F)c1nc[nH]c1C(F)(F)F
inactive: dose: 6.25 mg/kg/injection, schedule: Q01DX009 (ip), vehicle: water 103 % of control | dose: 12.5 mg/kg/injection, schedule: Q01DX009 (ip), vehicle: water 97 % of control | dose: 25.0 mg/kg/injection, schedule: Q01DX009 (ip), vehicle: water 97 % of control

CCCCN(C)N=Nc1ccc(C(=N)N)cc1
inactive: dose: 5.0 mg/kg/injection, schedule: Q01DX001 (ip), vehicle: carboxymethylcellulose (CMC) 106 % of control | dose: 10.0 mg/kg/injection, schedule: Q01DX001 (ip), vehicle: carboxymethylcellulose (CMC) 100 % of control | dose: 20.0 mg/kg/injection, schedule: Q01DX001 (ip), vehicle: carboxymethylcellulose (CMC) 100 % of control | dose: 40.0 mg/kg/injection, schedule: Q01DX001 (ip), vehicle: carboxymethylcellulose (CMC) 95 % of control | dose: 80.0 mg/kg/injection, schedule: Q01DX001 (ip), vehicle: carboxymethylcellulose (CMC) 101 % of control

O=C(Nc1cc(Cl)ccc1Cl)c1cccc(Cl)c1
inactive: dose: 100.0 mg/kg/injection, schedule: Q01DX009 (ip), vehicle: Klucel (hydroxypropylcellulose) (HPC) 93 % of control | dose: 200.0 mg/kg/injection, schedule: Q01DX009 (ip), vehicle: Klucel (hydroxypropylcellulose) (HPC) 100 % of control | dose: 400.0 mg/kg/injection, schedule: Q01DX009 (ip), vehicle: Klucel (hydroxypropylcellulose) (HPC) 97 % of control

CC(SCc1ccccc1)C(=O)O (centres undefined)
inactive: [1] 97 % of control | [2] 94 % of control | [3] 92 % of control

NC(=O)/C(=C\c1ccc([N+](=O)[O-])o1)c1ccco1
inactive: dose: 55.0 mg/kg/injection, schedule: Q01DX Z (ip), vehicle: methylcellulose (MC) 93 % of control | dose: 83.0 mg/kg/injection, schedule: Q01DX Z (ip), vehicle: methylcellulose (MC) 98 % of control | dose: 125.0 mg/kg/injection, schedule: Q01DX Z (ip), vehicle: methylcellulose (MC) 100 % of control

CCOC(=O)C(=O)NCc1cnccn1
inactive: dose: 100.0 mg/kg/injection, schedule: Q01DX009 (ip), vehicle: water 103 % of control | dose: 100.0 mg/kg/injection, schedule: Q04DX003 (ip), vehicle: water 91 % of control | dose: 200.0 mg/kg/injection, schedule: Q01DX009 (ip), vehicle: water 101 % of control and 107 % of control | dose: 200.0 mg/kg/injection, schedule: Q04DX003 (ip), vehicle: water 94 % of control | dose: 400.0 mg/kg/injection, schedule: Q01DX009 (ip), vehicle: water 94 % of control and 110 % of control | dose: 400.0 mg/kg/injection, schedule: Q04DX003 (ip), vehicle: water 104 % of control

O=C1c2cccc3cc([N+](=O)[O-])cc(c23)C(=O)N1Cc1ccco1
inactive: [8] 95 % of control | [9] 120 % of control | [10] 88 % of control

O=C(O)c1cc(S(=O)(=O)F)ccc1O
inactive: [8] 101 % of control | [9] 101 % of control | [10] 104 % of control

COc1ccc2c(c1OC)CN(C)CCc1cc3c(cc1C(=O)C2)OCO3
inactive: [7] 96 % of control | dose: 200.0 mg/kg/injection, schedule: Q01DX001 (ip), vehicle: carboxymethylcellulose (CMC) 96 % of control | [11] 100 % of control

C=C(C)C(Br)=C(C)C
inactive: dose: 100.0 mg/kg/injection, schedule: Q01DX001 (ip), vehicle: DMSO 96 % of control

C[As](C)Sc1ccnc(S[As](C)C)n1
inactive: [12] 102 % of control | [13] 96 % of control | [14] 107 % of control | [15] 96 % of control

NCCc1c[nH]c2ccc(O)cc12 (tested in a mixture with another compound)
inactive: dose: 120.0 mg/kg/injection, schedule: Q01DX009 (ip), vehicle: carboxymethylcellulose (CMC) 107 % of control | [11] 108 % of control | dose: 600.0 mg/kg/injection, schedule: Q01DX001 (ip), vehicle: carboxymethylcellulose (CMC) 108 % of control | dose: 600.0 mg/kg/injection, schedule: Q01DX009 (ip), vehicle: carboxymethylcellulose (CMC) 102 % of control | dose: 800.0 mg/kg/injection, schedule: Q01DX001 (ip), vehicle: carboxymethylcellulose (CMC) 114 % of control | dose: 800.0 mg/kg/injection, schedule: Q01DX009 (ip), vehicle: carboxymethylcellulose (CMC) 119 % of control | dose: 1000.0 mg/kg/injection, schedule: Q01DX001 (ip), vehicle: carboxymethylcellulose (CMC) 106 % of control

OC(c1ccccc1)(c1ccccc1)C1CCc2cc3ccccc3nc21 (centres undefined)
inactive: dose: 50.0 mg/kg/injection, schedule: Q01DX009 (ip), vehicle: saline with Tween-80 95 % of control | [12] 98 % of control | [14] 95 % of control

O=C(O)c1cccc(N2C(=O)CSC2=S)c1
inactive: dose: 25.0 mg/kg/injection, schedule: Q04DX002 (ip), vehicle: Klucel (hydroxypropylcellulose) (HPC) 94 % of control | dose: 50.0 mg/kg/injection, schedule: Q04DX002 (ip), vehicle: Klucel (hydroxypropylcellulose) (HPC) 93 % of control and 91 % of control | dose: 100.0 mg/kg/injection, schedule: Q04DX002 (ip), vehicle: Klucel (hydroxypropylcellulose) (HPC) 93 % of control and 102 % of control | dose: 200.0 mg/kg/injection, schedule: Q04DX002 (ip), vehicle: Klucel (hydroxypropylcellulose) (HPC) 88 % of control

NC1=NC(c2ccccc2)C2=C(N1)C(=O)N(c1ccc(Br)cc1)C2 (centres undefined)
inactive: dose: 18.75 mg/kg/injection, schedule: Q01DX009 (ip), vehicle: saline 88 % of control | dose: 37.5 mg/kg/injection, schedule: Q01DX009 (ip), vehicle: saline 86 % of control | dose: 75.0 mg/kg/injection, schedule: Q01DX001 (ip), vehicle: saline 93 % of control | dose: 75.0 mg/kg/injection, schedule: Q01DX009 (ip), vehicle: saline 91 % of control | dose: 150.0 mg/kg/injection, schedule: Q01DX001 (ip), vehicle: saline 90 % of control | dose: 300.0 mg/kg/injection, schedule: Q01DX001 (ip), vehicle: saline 95 % of control

COC(=O)c1ncn(/C=C/c2ccccc2)c1C(=O)O
inactive: [4] 92 % of control | [5] 91 % of control | [6] 87 % of control

Cn1c(=O)[nH]cc(C(=O)O)c1=O
inactive: [4] 91 % of control | [5] 92 % of control | [6] 91 % of control

O=S(=O)(c1ccccc1)C1CC1(c1ccccc1)c1ccccc1 (centres undefined)
inactive: [1] 92 % of control | [2] 93 % of control | [3] 90 % of control

O=C(Nc1cccc(C(F)(F)F)c1)Nc1cccc(C(F)(F)F)c1
inactive: dose: 100.0 mg/kg/injection, schedule: Q01DX001 (ip), vehicle: Klucel (hydroxypropylcellulose) (HPC) 94 % of control and 91 % of control | [13] 97 % of control and 87 % of control | dose: 200.0 mg/kg/injection, schedule: Q01DX001 (ip), vehicle: Klucel (hydroxypropylcellulose) (HPC) 98 % of control | [15] 99 % of control and 87 % of control | dose: 400.0 mg/kg/injection, schedule: Q01DX001 (ip), vehicle: Klucel (hydroxypropylcellulose) (HPC) 94 % of control | dose: 400.0 mg/kg/injection, schedule: Q04DX003 (ip), vehicle: saline with Tween-80 97 % of control and 89 % of control
